The source of these data is patent US5508311A, “Aliphatic propargylamines as selective MAO-B inhibitors and as neuroprotective agents” (University of Saskatchewan, priority 1993, dated 1996).

The conditions of data set [1]: human, in vivo; cited from earlier work.
The target of data set [2] is monoamine oxidase. As to the kind of experiment: Inhibition of rat liver monoamine oxidase deamination of dopamine (DA, mixed-type MAO A and B substrate) in vitro. The format is biochemical. The note with it: substrate DA (5 × 10^-4 M), average of at least 3 independent experiments. The protocol: The aliphatic propargylamine inhibitors (from 1×10^-10 M to 1×10^-4 M) were preincubated with the MAO for 20 min. at ambient room temperature and then the residual enzyme activities were determined by addition of the substrates, followed by further incubation at 37° C. for 30 min. The enzymatic reactions were terminated by the addition of citric acid and the aldehyde products were extracted with toluene: ethyl acetate (1:1, v/v) and the radio-activities assessed in a scintillation counter.

The target of data set [3] is T1, MAO-A (Mus musculus, UniProt Q64133).
T1 construct: MAO activities in the mouse brain after; from tissue
T1 sequence (Q64133 1-526): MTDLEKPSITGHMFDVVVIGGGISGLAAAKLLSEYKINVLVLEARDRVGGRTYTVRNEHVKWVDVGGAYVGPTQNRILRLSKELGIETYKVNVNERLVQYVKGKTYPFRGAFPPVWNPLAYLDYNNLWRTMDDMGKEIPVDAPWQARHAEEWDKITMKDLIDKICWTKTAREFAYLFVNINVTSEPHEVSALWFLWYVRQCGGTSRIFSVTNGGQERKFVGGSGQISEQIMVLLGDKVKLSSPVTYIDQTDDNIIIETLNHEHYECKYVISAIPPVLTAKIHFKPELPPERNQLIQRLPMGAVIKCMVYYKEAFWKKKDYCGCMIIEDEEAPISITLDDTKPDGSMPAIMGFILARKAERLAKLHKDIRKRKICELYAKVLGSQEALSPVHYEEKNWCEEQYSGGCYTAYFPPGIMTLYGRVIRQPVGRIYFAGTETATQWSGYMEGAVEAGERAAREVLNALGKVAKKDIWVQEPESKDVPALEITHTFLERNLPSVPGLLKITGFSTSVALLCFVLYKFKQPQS
Nature of the data set: in vivo. As to conditions: ip, 2 h, read-out: 5-HT ID50. The protocol:
Albino Swiss mice were used in this study. The animals were injected intraperitoneally with different doses of the aliphatic propargylamines in 100 μL saline.
0.5, 1, 2, 5, 10, 20, 50, 100 mg/Kg. Striata were dissected from the brai
two hours after i.p. administration of the drugs. MAOA and MAOB activitie
were determined immediately. The values were estimated from doseresponse

The subject of data set [4] is Parkinson's disease. As to conditions: Deprenyl alone; cited from earlier work.
For data set [5] the following is noted: reported; cited from earlier work.
The subject of data set [6] is dopamine neurons. As to conditions: animal study (Tatton); cited from earlier work.

Turning to `CC(C)NNC(=O)c1ccncc1` [Iproniazid], the “adverse effects leading to withdrawal” value in data set [1] was “hepatic toxicity and occasional hypertensive crises”.
Consider `C#CCN(C)[C@H](C)Cc1ccccc1` [Deprenyl], for which, in data set [2], the half-maximal inhibitory concentration (IC50) (usually the point on the concentration scale where inhibition reaches its midpoint) was found to be 300 nM. Moreover, the ED50 in data set [3] is 25 mg/kg. The “onset of disability in early, otherwise untreated Parkinson's disease” value in data set [4] is reported as “can significantly delay the onset of disability”. Moreover, in data set [5], the median lethal dose (LD50) (as a rule, the dose at which mortality reaches 50%) was 445 mg/kg. The “protection of dopamine neurons after MPTP washed out” value in data set [6] is reported as “shown to protect dopamine neurons even after the MPTP has been completely washed out of the tissues”.
